# According to patent publication EP0158545A1, “[Alpha-(alkylaminomethyl)-benzylthio]-acetic-acid derivatives, process for their preparation and their therapeutic use” (priority 1984, dated 1985):
# Columns and labels:
# souris mâle [1] = details: mouse, in vivo, ip
# Description: (§1) On a résumé ci-après les résultats des essais neuropsychopharmacologiques qui ont été entrepris avec les produits préférés selon l'invention, le CRL 41 190 (Ex 1) et le CRL 41 214 (Ex 3). Dans ce résumé, les deux produits à tester mis en solution dans de l'eau distillée ont été administrés, sauf indiction contraire, par voie intrapéritonéale sous un volume de 20 ml/kg chez la souris mâle et sous un volume de 5 ml/kg chez le rat mâle. […]
# La DL-0 (dose maximale non mortelle) du CRL 41 190 est supérieure à 128 mg/kg par voie I.P. chez la souris mâle, et la DL-30 est de l'ordre de 256 mg/kg.
# Par voie I.P. chez la souris mâle, la DL-0 est supérieure à 256 mg/kg.
# souris [2] = assay: Global behaviour and reactivities, mouse; type: in vivo; details: I.P.
# Description: as §1
# (§2) Des lots de trois animaux sont observés avant puis 0,25 h, 0,5, h, 1 h, 2 h, 3 h et 24 h après administration de CRL 41 190.
# rat [3] = assay: Global behaviour and reactivities, rat; type: in vivo; details: I.P.
# Description: as §1, §2
# souris [4] = assay: Interaction with apomorphine, mouse; type: in vivo; details: product I.P. 0,50 h before s.c. apomorphine
# Description: • 1°) chez la souris • Des lots de 6 souris reçoivent le produit à étudier 0,50 h avant une injection sous-cutanée de 1 mg/kg ou 16 mg/kg d'apomorphine.
# rat [5] = assay: Interaction with apomorphine, rat; type: in vivo; details: product I.P. 0,50 h before s.c. 0,5 mg/kg apomorphine
# rats = assay: Interaction with amphetamine (stereotypies), rat; type: in vivo; details: amphétamine 2 mg/kg I.P. half an hour after product, doses de 8 et 32 mg/kg
# Description: L'amphétamine (2 mg/kg) est injectée par voie intrapéritonéale à des lots de 6 rats, une demi -heure après l'administration de CRL 41 190.
# souris [6] = assay: Interaction with reserpine (hypothermia, ptosis), mouse; type: in vivo
# Description: Quatre heures après l'injection intrapéritonéale de 2,5 mg/kg de réserpine, des lots de 12 souris reçoivent le CRL 41 190. On étudie l'influence du produit à tester sur l'hypothermie et le ptôsis réserpiniques.
# souris [7] = assay: Interaction with oxotremorine, mouse; type: in vivo
# souris [8] = assay: Four-plate test, traction and electroshock, mouse; type: in vivo
# Description: Le test est pratiqué sur des lots de 10 souris 0,50 h après l'administration du produit à étudier.
# souris [9] = assay: Spontaneous motility (actimeter), mouse; type: in vivo; details: souris, 0,5 h after I.P., recorded 30 minutes; plus forte dose utilisée (64 mg/kg)
# souris [10] = assay: Intergroup aggressiveness, mouse; type: in vivo; details: half an hour after I.P., 10 minutes, plus forte dose utilisée (64 mg/kg)
# Description: Après avoir séjourné pendant 3 semaines dans chacune des moitiés d'une cage séparées par une cloison opaque, des groupes de 3 souris reçoivent le CRL 41 190. Une demi-heure plus tard, les deux groupes d'une même cage sont réunis par retrait de la cloison et on note le nombre de combats qui surviennent en 10 minutes.
# souris [11] = assay: Motility reduced by habituation to the enclosure, mouse; type: in vivo; details: I.P., after 18 heures in actimeter
# souris [12] = assay: Asphyxic anoxia (gallamine triethiodide), mouse; type: in vivo; details: product I.P. half an hour before triiodoéthylate de gallamine 32 mg/kg I.P.
# souris [13] = assay: Interaction with barbital (sleep duration), mouse; type: in vivo; details: barbital 220 mg/kg I.P. half an hour after product, plus forte dose utilisée (64 mg/kg)
# souris [14] = assay: Behavioural despair (forced immersion), mouse; type: in vivo; details: half an hour after I.P., plus forte dose utilisée (64 mg/kg)
# From the text: On note la durée totale d'immobilité entre la 2ème et la 6ème minutes suivant l'immersion.
# souris mâle [15] = assay: Complementary neuropsychopharmacological tests by gastric route, mouse; type: in vivo; details: voie gastrique, 20 ml/kg in distilled water
# Description: Des essais complémentaires ont été entrepris, le CRL 41 190 en solution dans de l'eau distillée étant administré par voie gastrique sous un volume de 20 ml/kg chez la souris mâle.
# l'homme = assay: Clinical treatment of depression, oral administration; type: in vivo
# souris [16] = details: half an hour after I.P., dépression de 600 mmHg
# [17] = oxotrémorine 0,5 mg/kg I.P., dose de 64 mg/kg
# [18] = souris, 0,50 h after I.P. administration
smiles,measurement,setting,value
"CC(C)(C)NCC(SCC(N)=O)c1ccccc1 (racemic) [CRL 41 190, chlorhydratede [α-(tertiobutylamino-méthyl)-benzyl]-thioacétamide]",DL-0 (dose maximale non mortelle),souris mâle [1],> 128 mg/kg
same,DL-30,souris mâle [1],~256 mg/kg
same,comportement global et réactivités,"souris [2]; dose de 1 mg/kg, observed 0,25 h to 24 h",aùcune modification nette du comportement et et des réactivités
same,comportement global et réactivités,souris [2]; dose de 64 mg/kg,"une augmentation de la réaction de peur pendant 1 h et de la réactivité au toucher de 0,5 h à 1 h, une sédation, et, une mydriase faible pendant 1 h"
same,comportement global et réactivités,souris [2]; doses de 4 et 16 mg/kg,"une augmentation de la réaction de peur, d'υne part, et une augmentation de la réactivité au toucher pendant 0,5 h"
same,comportement global et réactivités,rat [3]; dose de 32 mg/kg,une mydriase pendant 1 h
same,comportement global et réactivités,"rat [3]; doses de 0,5 mg/kg à 8 mg/kg","un comportement, des réactivités, une variation de la température rectale, et une variation du diamètre pupillaire sensiblement comparables à ceux du lot témoin"
same,comportements de verticalisation et stéréotypies (apomorphine),souris [4],ne sont pratiquement pas modifiés
same,hypothermie induite par 16 mg/kg d'apomorphine,souris [4]; dès la dose de 1 mg/kg,antagonise dès la dose de 1 mg/kg l'hypothermie induite par 16 mg/kg d'apomorphine
same,hypothermie induite par 1 mg/kg d'apomorphine,souris [4]; plus forte dose utilisée (64 mg/k),s'oppose à l'hypothermie induite par 1 mg/kg d'apomorphine
same,stéréotypies induites par l'apomorphine,rat [5],laisse inchangées les stéréotypies induites par l'apomorphine
same,durée des stéréotypies amphétaminiques,rats,augmente nettement la durée des stéréotypies amphétaminiques
same,hypothermie réserpinique,"souris [6]; product 4 h after réserpine 2,5 mg/kg I.P., dès la dose de 4 mg/kg",antagonise l'hypothermie réserpinique
same,ptôsis réserpinique,"souris [6]; réserpine 2,5 mg/kg I.P., 16 mg/kg et 64 mg/kg, from half an hour after administration",antagonise faiblement le ptôsis réserpinique
same,hypothermie réserpinique,"souris [6]; réserpine 2,5 mg/kg I.P., deux plus fortes doses (16 mg/kg et 64 mg/kg)",Cet antagonisme est très net
same,signes de stimulation cholinergique périphérique dûs à l'oxotrémorine,"souris [7]; oxotrémorine 0,5 mg/kg I.P., aux autres doses (below 64 mg/kg)",ne modifie pratiquement pas les signes de stimulation cholinergique péripherique dûs à l'oxotrémorine
same,intensité des tremblements dûs à l'oxotrémorine,souris [7]; [17],diminue faiblement l'intensité des tremlblements dûs à l'oxotrémorine
same,salivation (symptômes cholinergiques périphériques),souris [7]; [17],"diminue faiblement la salivation entre les 1,5 h et 2 h qui suivent son administration"
same,hypothermie induite par l'oxotrémorine,"souris [7]; oxotrémorine 0,5 mg/kg I.P., doses de 4 mg/kg, 16 mg/kg et surtout 64 mg/kg",Cet antagonisme est net
same,hypothermie induite par l'oxotrémorine,"souris [7]; product half an hour before oxotrémorine 0,5 mg/kg I.P., dès la dose de 1 mg/kg",s'oppose à l'hypothermie induite par l'oxotrémorine
same,effets convulsivants de l'électrochoc,souris [8]; [18],ne modifie pas les effets convulsivants
same,incapacité motrice (traction),souris [8]; [18],ne provoque pas d'incapacité motrice majeure
same,nombre de passages punis (test des quatre plaques),souris [8]; [18],n'entraîne pas d'augmentation du nombre de passages punis
same,effets létaux de l'électrochoc,"souris [8]; souris, I.P., dose de 64 mg/kg","aggrave, à la dose de 64 mg/kg, les effets létaux de l'électrochoc"
same,activité motrice spontanée,souris [9],ne modifie pratiquement pas l'activité motrice spontanée de la souris
same,nombre de combats,souris [10],augmente modérément le nombre de combats
same,reprise d'activité motrice chez la souris habituée à son enceinte,souris [11],n'entraîne pas de reprise d'activité motrice chez la souris habituée à son enceinte
same,délai d'apparition des convulsions et de la mort consécutives à une anoxie asphyxique,souris [12],ne modifie pas le délai d'apparition des convulsions et de la mort
same,durée du sommeil barbiturique,souris [13],diminue la durée du sommeil barbiturique
same,durée de l'immobilité de la souris placée en immersion forcée,souris [14],diminue nettement la durée de l'immobilité de la souris placée en immersion forcée
same,overall CNS profile by gastric route,souris mâle [15],"agit essentiellement en tant qu'antidépresseur avec, à fortes doses, une composante éveillante et stimulante très modérée"
same,traitement des dépressions chez l'homme,"l'homme; administration orale, gélules ou comprimés 25 mg ou 50 mg, 1 à 2 prises par jour, deux à trois semaines",bons résultats
same,propriétés antidépressives chez les personnes agées,"l'homme; clinical, oral",se manifestaient de façon très bénéfique chez les personnes agées
same,récupération motrice après anoxie hypobare aigue,souris [16],n'entraîne pas d'amélioration de la récupération motrice
